Experimental data reported in publication PMC6979384, “Characterization of the plant homeodomain (PHD) reader family for their histone tail interactions” (Epigenetics & Chromatin, 2020).
“Also recorded” adds a separate entry of the source.

How the values were obtained:
MLL5 = experiment: Histone peptide microarray; assay type: binding, human; settings: for Array Heatmap signal (histone peptide microarray): GST-tagged MLL5, sheet Array Heatmap, each array performed twice, total n = 4
Outline: (§1)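 Steps: express and purify GST-tagged PHD reader; incubate 0.5 μM protein on a peptide microarray (293 histone peptides, single or combined PTMs) following an optimized protocol; average signal across 4 replicates.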

ING3 = experiment: Histone peptide microarray; assay type: binding, human; settings: GST-tagged ING3, sheet Array Heatmap, each array performed twice, total n = 4
Outline: as §1

PHF13 = experiment: Histone peptide microarray; assay type: binding, human; settings: GST-tagged PHF13, sheet Array Heatmap, each array performed twice, total n = 4
Outline: as §1

AIRE (PP) = experiment: Histone peptide microarray; assay type: binding, human; settings: GST-tagged AIRE (PP), sheet Array Heatmap, each array performed twice, total n = 4
Outline: as §1

ING2 = experiment: Histone peptide microarray; assay type: binding, human; settings: GST-tagged ING2, sheet Array Heatmap, each array performed twice, total n = 4
Outline: as §1

[1] = system: 123 annotated human PHD-containing domains; experiment: PHD finger domain microarray probed with biotinylated peptides (all domains); assay type: binding; settings: for number of H3-interacting domains with preference for this state: out of 31 H3-binding domains; for binding on domain microarray: GST-PHD readers in duplicate on nitrocellulose slides, biotinylated peptide pre-labeled with streptavidin-Cy3
Source text: To define the histone binding preferences of the PHD finger proteome, we expressed and purified 123 annotated human PHD-containing domains as GST-tagged recombinant fusions from E. coli. The recombinant proteins consisted of either PHD fingers in isolation, or as tandem domains if a given PHD finger was located adjacent to another reader domain (e.g., one or more PHD fingers, Tudor, chromo and/or bromodomains) (Additional file 1: Table S1). These GST fusions were printed in duplicate on nitrocellulose-coated microarray slides and probed with biotinylated peptides that represented the N-termini of H3, H4, H2A or H2B (Fig. 1a and Additional file 2: Figure S1). As the majority of PHD readers thus far characterized are H3K4me0/3 readers, we included additional peptides (H3K4 as either mono-, di-, or trimethylated) to further determine any H3K4 methyl preference (Additional file 2: Figure S2 and Fig. 1b). As a control, we also probed these microarrays with an α-Tubulin peptide (a.a. 30–50) that would not be predicted to interact with PHD fingers (Additional file 2: Figure S1). […] We also cannot exclude the possibility that some PHD fingers might not be functionally active on the microarrays (perhaps due to misfolding or the lack of an important adjacent region).
The protein domain microarray was designed to include 123 GST-tagged PHD-domain containing recombinant proteins. Protein domain microarray development and probing was as previously. Briefly, recombinant proteins were synthesized and cloned into pGEX-4T-1 vector by Biomatik Corporation. These GST-PHD readers were subsequently expressed, purified, and spotted in duplicate onto nitrocellulose-coated glass slides (Oncyte Avid slides, Grace Bio-Labs) using a pin arrayer (Aushon 2470, Aushon). For probing, microarray slides were blocked with 3% milk, 3% bovine serum albumin, 0.1% Tween 20 in PBS. Biotinylated peptides were pre-labeled with streptavidin-Cy3 fluorophore (GE Healthcare) and incubated with the blocked array slides. Slides were then washed with PBST and allowed to air dry. Fluorescent interactions were visualized using a GenePix 4200A Microarray Scanner (Molecular Devices).

PHRF1 (RP) = experiment: dCypher AlphaScreen Phase B (full peptide screen); assay type: binding, human; settings: reader 15 nM, 100 nM peptide, 23 °C, n = 2
Protocol: (§2) X-axes are log(protein concentration (M)) at constant peptide concentration (100 nM); Y-axes are AlphaScreen counts, representing relative strength of binding (n = 2; error bars are S.D.). i Heat map represents relative binding to H3 N-terminal peptides (left) by PHD-containing GST-tagged proteins (top) using the dCypher AlphaScreen platform. Protein concentrations can be found in Additional file 5: Table S4. Binding strength is indicated by color gradient from green to yellow (stronger to weaker). […] Alpha counts (n = 2) were normalized individually for each protein to the highest signal for each respective assay. For full dCypher peptide screen data, see Additional file 4: Table S3
(§3) Once the optimal protein concentration ranges for each of the eight readers were determined, we conducted the full dCypher peptide screen (293 histone peptides) (Fig. 3i; Additional file 4: Table S3).
(§4) The dCypher peptide screen assay was performed as previously described. Briefly, 5 μL of GST-tagged reader domains (optimal protein concentration for library screening determined by initial binding curves to candidate peptides) were incubated with 5 μL of 400 nM (100 nM Final) biotinylated histone peptides (EpiCypher) for 30 min at 23 °C in 1× AlphaLISA Epigenetics buffer + epigenetics buffer supplement (PerkinElmer, AL1008) in a 384-well plate. A 10 μL mix of 5 µg/mL (2.5 μg/mL final) glutathione Acceptor beads (PerkinElmer, AL109M) and 10 μg/mL (5 μg/mL final) streptavidin Donor beads (PerkinElmer, 6760002) was prepared in 1× [Epigenetics buffer + supplement] and added to each well. Plates were incubated at 23 °C in subdued lighting for 60 min and AlphaLISA signal measured on a PerkinElmer 2104 EnVision (680 nm laser excitation, 570 nm emission filter ± 50 nm bandwidth).
(§5) Supplementary file 13072_2020_328_MOESM4_ESM.xlsx: Additional file 4: Table S3. dCypher Results. Excel Tab Peptide Phase A is a compiled set of binding data: chromatin reader titration vs. several peptide targets. Data is presented as raw Alpha counts in duplicates at each concentration tested. Excel Tab Peptide Phase B is a compiled set of binding data: chromatin reader at optimized concentrations vs. entire 293 peptide library. Data is presented as the average and standard deviation of duplicates. […] Key: red = strong binding; blue = weak/no binding.

TRIM66 (PB) = experiment: dCypher AlphaScreen Phase B (full peptide screen); assay type: binding, human; settings: reader 7 nM, 100 nM peptide, 23 °C
Protocol: as §2, §3, §4, §5

CHD5 (PPCC) = experiment: dCypher AlphaScreen Phase B (full peptide screen); assay type: binding, human; settings: reader 5.2 nM, 100 nM peptide, 23 °C, n = 2
Protocol: as §2, §3, §4, §5

Row | Substance | Array Heatmap signal (histone peptide microarray) (MLL5) | Array Heatmap signal (histone peptide microarray) (ING3) | Array Heatmap signal (histone peptide microarray) (PHF13) | Array Heatmap signal (histone peptide microarray) (AIRE (PP)) | Array Heatmap signal (histone peptide microarray) (ING2) | binding (CHD5 (PPCC)) | binding on domain microarray [1] | other results
1 | H3 (1-20): unmodified H3 N-terminal peptide (1–20) | 0.5452 | 0.4575 | 0.5761 | 0.4007 | 0.5908 | preference for H3K4me0/1 |  | number of PHD-containing fusions with positive binding ([1]; of 123 PHD-containing fusions): 31; number of H3-interacting domains with preference for this state [1]: 10; binding (PHRF1 (RP)): more limited interactions; binding (TRIM66 (PB); n = 2, listed as H3K4me0): preference for H3K4me0 and me1; also recorded: robust readers of H3K4me0 peptides
2 | H3K4me1: H3 1-20 [Peptide H3K4me1] | 0.5428 | 0.5265 | 0.6545 | 0.5018 | 0.606 | preference for H3K4me0/1 | did not detect H3K4me1 to the same degree | binding (TRIM66 (PB); n = 2): preference for H3K4me0 and me1
3 | H3K4me2: H3 1-20 [Peptide H3K4me2] | 0.5972 | 0.5315 | 0.6844 | 0.5318 | 0.6539 |  | largely recognized equivalently | 
4 | H3K4me3: H3 1-20 [Peptide H3K4me3] | 0.668 | 0.4876 | 0.5859 | 0.3854 | 0.6884 |  | largely recognized equivalently | binding preference (MLL5; peptide microarray, reader 0.5 μM, n = 4): strong preference for H3K4me3 over the un-, mono-, or di-methylated H3K4 peptides; also recorded: specific reader for H3K4me3; number of H3-interacting domains with preference for this state [1]: 18
5 | H3K9ac: H3 1-20 [Peptide H3K9ac] |  |  |  |  |  |  |  | Array Heatmap signal (histone peptide microarray) (MLL5; listed as 2): 0.5361; Array Heatmap signal (histone peptide microarray) (MLL5; listed as 3): 0.5261; Array Heatmap signal (histone peptide microarray) (ING3; listed as 2): 0.4489; Array Heatmap signal (histone peptide microarray) (ING3; listed as 3): 0.4338; Array Heatmap signal (histone peptide microarray) (PHF13; listed as 2): 0.5811; Array Heatmap signal (histone peptide microarray) (PHF13; listed as 3): 0.5738; Array Heatmap signal (histone peptide microarray) (AIRE (PP); listed as 2): 0.4059; Array Heatmap signal (histone peptide microarray) (AIRE (PP); listed as 3): 0.3893; Array Heatmap signal (histone peptide microarray) (ING2; listed as 2): 0.6059; Array Heatmap signal (histone peptide microarray) (ING2; listed as 3): 0.6036
6 | H3K9me3: H3 1-20 [Peptide H3K9me3] | 0.5674 | 0.491 | 0.6291 | 0.4645 | 0.5901 | ability to bind to the peptides containing H3K9me3 |  | binding (PHRF1 (RP)): more limited interactions; binding (TRIM66 (PB); n = 2): ability to bind to the peptides containing H3K9me3
7 | H3S10p: H3 1-20 [Peptide H3S10p] | 0.5416 | 0.4878 | 0.646 | 0.7118 | 0.606 |  |  | 
